For 34 compounds, Emax and EC50 results are on record in patent US20260200926A1, “TREM2 MODULATORS” (Muna Therapeutics ApS, priority 2022, published 2026).

In the assay the target is T1, Human TREM2 (Homo sapiens, UniProt Q9NZC2).
T1 construct: expressed in transfected cells
Description: Human TREM2 activity: cellular phosphorylation of Syk (AlphaLISA SureFire Ultra p-SYK) in HEK293/DAP12+TREM2 stable cell line. It is filed as cell-based. The note with it: for Emax: maximal response relative to reference agonist example 1B (remaining examples). The gist of the method:
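The read-out was p-Syk (Tyr525/526), measured by AlphaLISA in lysates of a stable HEK293/DAP12+TREM2 clone. Cells (10,000/well, plated the day before) received compound for 30 min at 37 °C. Dosing used 8 points in quadruplicate, top 100 μM with 1:6 dilution, 0.5% final DMSO.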
Background: Bead proximity is the source of the signal in Alpha formats.

Where [1] appears, read: phospho-Syk AlphaLISA signal, HEK293/DAP12+TREM2 cells, concentration giving 50% of maximal response, read-out: EC50.

Structures are written as SMILES. Read-outs that look alike come from different tables or passages of the source.

T1 sequence (Q9NZC2 19-230): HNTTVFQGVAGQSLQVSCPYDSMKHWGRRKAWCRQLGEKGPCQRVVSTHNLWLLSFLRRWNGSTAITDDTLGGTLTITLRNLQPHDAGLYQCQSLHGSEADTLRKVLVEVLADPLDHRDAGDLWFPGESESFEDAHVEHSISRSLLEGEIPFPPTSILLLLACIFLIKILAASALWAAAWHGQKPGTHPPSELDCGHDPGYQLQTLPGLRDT
T1 sequence (O43914 22-113 partner): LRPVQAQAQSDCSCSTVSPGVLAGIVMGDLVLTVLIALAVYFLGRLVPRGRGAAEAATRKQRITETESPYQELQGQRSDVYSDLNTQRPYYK

As for `Cc1nc2c(-c3ccc(Cl)cc3F)nc(N3CCO[C@@H](c4cnn(C5CC5)c4)C3)cc2c(=O)n1C` (single isomer, unassigned) [Example 131B], the Emax (HEK293, read-out: Emax) is less than 75%. Under setting [1], the concentration for a half-maximal effect (EC50) was 0.1 to 1 µM.
Regarding `Cc1nc2c(C3CCC(F)(F)CC3)nc(N3CCOC(c4cnn(C)c4)C3)nc2c(=O)n1C` (centres unmarked) [Example 11, 8-(4,4-difluorocyclohexyl)-2,3-dimethyl-6-(2-(1-methyl-1H-pyrazol-4-yl)morpholino)pyrimido[5,4-d]pyrimidin-4 (3H)-one], the maximal response (Emax) (HEK293, read-out: Emax) lay in the range of 75 to 110%. Further, the EC50 under setting [1] fell in the range of 0.1 to 1 µM.
The corresponding values for `Cc1cc([C@H]2CN(c3cc4c(=O)n(C)c(C)nc4c(-c4ccc(C(F)F)nc4)n3)C[C@@H](C)O2)ccn1` (single isomer, unassigned) [Example 192B] are 75 to 110% and 0.001 to 0.01 µM.
As to `Cc1ncc([C@H]2C[C@@H](c3nc(-c4ccc(Cl)cc4F)c4nc(C)n(C)c(=O)c4n3)CCO2)cn1` (racemic) [Example 37, 8-(4-chloro-2-fluorophenyl)-2,3-dimethyl-6-((2R,4S)-2-(2-methylpyrimidin-5-yl)tetrahydro-2H-pyran-4-yl)pyrimido[5,4-d]pyrimidin-4 (3H)-one], the maximal effect (Emax) (HEK293, read-out: Emax) fell in the range of 75 to 110%. For the same compound, under setting [1], the EC50 lay within 0.1 to 1 µM.
With `Cc1nc2c(-c3ccc(Cl)cc3F)nc(N3CCOC(c4cnn(C5CC5)c4)C3)nc2c(=O)n1C` (centres unmarked) [Example 2, 8-(4-chloro-2-fluorophenyl)-6-(2-(1-cyclopropyl-1H-pyrazol-4-yl)morpholino)-2,3-dimethylpyrimido[5,4-d]pyrimidin-4 (3H)-one], the Emax (HEK293, read-out: Emax) was in the range of 75 to 110%. For the same compound, under setting [1], the concentration for a half-maximal effect (EC50) fell in the range of 0.001 to 0.01 µM.
The corresponding values for `Cc1nc2c(-c3ccc(F)cc3C#N)nc(N3C[C@@H](c4cnn(C5CC5)c4)O[C@@H](C)C3)cc2c(=O)n1C` (single isomer, unassigned) [Example 201A] are less than 75% and greater than 1 µM.
The like results for `Cc1nc2c(-c3cc(F)c(F)cc3F)nc(N3C[C@H](c4cnn(C)c4)OC(C)(C)C3)nc2c(=O)n1C` (single isomer, unassigned) [Example 101B] were, in that order, less than 75% and greater than 1 µM.
As to `Cc1nc2c(-c3ccc(Cl)cc3F)nc(N3CCCC(N4CCOCC4)C3)nc2c(=O)n1C` (centres unmarked) [Example 78, 8-(4-chloro-2-fluorophenyl)-2,3-dimethyl-6-(3-morpholinopiperidin-1-yl)pyrimido[5,4-d]pyrimidin-4 (3H)-one], where the note is “HEK293, read-out: Emax”, the Emax lay in the range of 75 to 110%. For the same compound, the half-maximal effective concentration (EC50) under setting [1] was in the range of 0.1 to 1 µM.
Regarding `Cc1cc([C@H]2CN(c3nc(-c4ccc(C(F)(F)F)cc4F)c4nc(C)n(C)c(=O)c4n3)CC(C)(C)O2)ccn1` (single isomer, unassigned) [Example 124B], the Emax (HEK293, read-out: Emax) was in the range of 75 to 110%. Further, the concentration giving a half-maximal response (EC50) under setting [1] is 0.001 to 0.01 µM.
`Cc1nc2c(-c3ccc(Cl)cc3F)nc([C@@H]3C[C@@H]3c3cnn(C)c3)cc2c(=O)n1C` (single isomer, unassigned) [Example 148A]: the maximal effect (Emax) (HEK293, read-out: Emax) is less than 75%. Besides, the EC50 under setting [1] is greater than 1 µM.
Consider `Cc1nc2c(-c3ccc(F)cc3Cl)nc(N3CCOC(c4cnn(C)c4)C3)nc2c(=O)n1C` (centres unmarked) [Example 70, 8-(2-chloro-4-fluorophenyl)-2,3-dimethyl-6-(2-(1-methyl-1H-pyrazol-4-yl)morpholino)pyrimido[5,4-d]pyrimidin-4 (3H)-one], for which, where the note is “HEK293, read-out: Emax”, the Emax is less than 75%. Moreover, the EC50 under setting [1] is greater than 1 µM.
The corresponding values for `Cc1nc2c(-c3ccc(C(F)(F)F)cc3F)nc(N3C[C@H](c4cnn(C)c4)OC(C)(C)C3)nc2c(=O)n1C` (single isomer, unassigned) [Example 100B] are less than 75% and 0.1 to 1 µM.
Take `C[C@H]1CN(c2cc3c(=O)n(C)c(C(F)(F)F)nc3c(-c3ccc(F)cc3F)n2)C[C@@H](c2cnn(C3CC3)c2)O1` (single isomer, unassigned) [Example 193A]: the maximal response (Emax) (HEK293, read-out: Emax) is 75 to 110%. Besides, under setting [1], the concentration giving a half-maximal response (EC50) fell in the range of 0.001 to 0.01 µM.
The corresponding values for `Cc1nc2c(-c3ccc(Cl)cc3F)nc(N3C[C@@H](c4cnn(C)c4)OC4(CCC4)C3)cc2c(=O)n1C` (single isomer, unassigned) [Example 151A] are 75 to 110% and 0.001 to 0.01 µM.
The like results for `Cc1nc2c(-c3ccc(C(F)(F)F)cc3F)nc(N3C[C@@H](c4cnn(C)c4)OC4(CC4)C3)cc2c(=O)n1C` (single isomer, unassigned) [Example 145A] were, in that order, 75 to 110% and 0.001 to 0.01 µM.
`Cc1cc([C@H]2CN(c3cc4c(=O)n(C)c(C)nc4c(-c4ccc(Cl)cc4F)n3)CC3(CC3)O2)ccn1` (single isomer, unassigned) [Example 128B]: the Emax (HEK293, read-out: Emax) was in the range of 75 to 110%. Further, the concentration for a half-maximal effect (EC50) under setting [1] was in the range of 0.1 to 1 µM.
Consider `Cn1c(C(F)(F)F)nc2c(-c3ccc(F)cc3F)nc(C3CCOC(c4cnn(C5CC5)c4)C3)c(F)c2c1=O` (centres unmarked) [Example 167, 6-(2-(1-cyclopropyl-1H-pyrazol-4-yl)tetrahydro-2H-pyran-4-yl)-8-(2,4-difluorophenyl)-5-fluoro-3-methyl-2-(trifluoromethyl) pyrido[3,4-d]pyrimidin-4 (3H)-one], for which the maximum response (Emax) (HEK293, read-out: Emax) was less than 75%. Besides, the concentration for a half-maximal effect (EC50) under setting [1] fell in the range of 0.1 to 1 µM.
Turning to `Cc1nc2c(-c3ccc(Cl)cc3F)nc([C@H]3C[C@@H](c4cnn(C)c4)OC(C)(C)C3)nc2c(=O)n1C` (single isomer, unassigned) [Example 111A], the maximal effect (Emax) (HEK293, read-out: Emax) lay within 75 to 110%. Under setting [1], the EC50 lay within 0.01 to 0.1 µM.
As to `Cc1nc2c(-c3ccc(Cl)cc3F)nc([C@H]3CCO[C@@H](c4cnn(C)c4)C3)nc2c(=O)n1C` (single isomer, unassigned) [Example 68], the Emax (HEK293, read-out: Emax) is 75 to 110%. Moreover, the EC50 under setting [1] was greater than 1 µM.
The corresponding values for `Cc1cc([C@@H]2CN(c3cc4c(=O)n(C)c(C(F)(F)F)nc4c(-c4ccc(F)cc4F)n3)C[C@H](C)O2)ccn1` (single isomer, unassigned) [Example 189A] are 75 to 110% and 0.01 to 0.1 µM.
The like results for `Cc1nc2c(-c3ccc(Cl)cc3F)nc(N3C[C@H](c4cnn(C5CC5)c4)OC(C)(C)C3)nc2c(=O)n1C` (single isomer, unassigned) [Example 110B] were, in that order, less than 75% and 0.01 to 0.1 µM.
As for `Cc1ncc(C2CN(c3nc(-c4ccc(Cl)cc4F)c4nc(C)n(C)c(=O)c4n3)CCO2)cn1` (centres unmarked) [Example 35, 8-(4-chloro-2-fluorophenyl)-2,3-dimethyl-6-(2-(2-methylpyrimidin-5-yl)morpholino)pyrimido[5,4-d]pyrimidin-4 (3H)-one], the EC50 is 0.01 to 0.1 µM and the maximal response (Emax) result is “+ (<75%)”.
Take `Cc1nc2c(-c3ccc(Cl)cc3F)nc(N3CCOC4(CCCC4)C3)nc2c(=O)n1C` [Example 54, 8-(4-chloro-2-fluorophenyl)-2,3-dimethyl-6-(6-oxa-9-azaspiro[4.5]decan-9-yl)pyrimido[5,4-d]pyrimidin-4(3H)-one]: the Emax (HEK293, read-out: Emax) is less than 75%. The concentration giving a half-maximal response (EC50) under setting [1] was greater than 1 µM.
`Cc1nc2c(-c3ccc(Cl)cc3F)nc(N3C[C@H](c4cnn(C)n4)OC(C)(C)C3)cc2c(=O)n1C` (single isomer, unassigned) [Example 147B]: the Emax (HEK293, read-out: Emax) was in the range of 75 to 110%. Further, the EC50 under setting [1] is 0.1 to 1 µM.
With `COc1ccc(Cn2c(C)nc3c(-c4ccc(Cl)cc4F)nc(N4CCOC(c5cnn(C)c5)C4)nc3c2=O)cc1` (centres unmarked) [Example 59, 8-(4-chloro-2-fluorophenyl)-3-(4-methoxybenzyl)-2-methyl-6-(2-(1-methyl-1H-pyrazol-4-yl)morpholino)pyrimido[5,4-d]pyrimidin-4(3H)-one], the Emax (HEK293, read-out: Emax) was 75 to 110%. The EC50 under setting [1] was in the range of 0.1 to 1 µM.
With `Cc1nc2c(-c3ccc(Cl)cc3F)nc([C@@H]3C[C@H](c4cnn(C)c4)OC(C)(C)C3)nc2c(=O)n1C` (single isomer, unassigned) [Example 111B], the Emax (HEK293, read-out: Emax) was less than 75%. For the same compound, the EC50 under setting [1] is 0.1 to 1 µM.
The corresponding values for `Cc1cc([C@@H]2C[C@H](c3cc4c(=O)n(C)c(C)nc4c(-c4ccc(C(F)(F)F)cc4F)n3)CCO2)ccn1` (single isomer, unassigned) [Example 168A] are less than 75% and 0.1 to 1 µM.
Consider `Cc1nc2c(-c3ccc(Cl)cc3F)nc(N3CCn4nc(C(F)(F)F)nc4C3)nc2c(=O)n1C` [Example 188, 8-(4-chloro-2-fluorophenyl)-2,3-dimethyl-6-(2-(trifluoromethyl)-5,6-dihydro-[1,2,4]triazolo[1,5-a]pyrazin-7 (8H)-yl)pyrimido[5,4-d]pyrimidin-4 (3H)-one], for which, for the setting “HEK293, read-out: Emax”, the maximum response (Emax) is less than 75%. The concentration giving a half-maximal response (EC50) under setting [1] was in the range of 0.01 to 0.1 µM.
The corresponding values for `Cc1cc([C@@H]2CN(c3cc4c(=O)n(C)c(C)nc4c(-c4ccc(C(F)F)nc4)n3)C[C@H](C)O2)ccn1` (single isomer, unassigned) [Example 192A] are less than 75% and 0.1 to 1 µM.
Consider `Cc1nc2c(-c3ccc(Cl)cc3F)cc([C@H]3CCO[C@@H](c4cnn(C5CC5)c4)C3)cc2c(=O)n1C` (single isomer, unassigned) [Example 119B], for which the maximal response (Emax) (HEK293, read-out: Emax) is 75 to 110%. The concentration for a half-maximal effect (EC50) under setting [1] fell in the range of 0.001 to 0.01 µM.
In the case of `Cc1nc2c(-c3ccc(Cl)cc3F)nc(N3C[C@H](c4cnn(C)c4)OC4(CCC4)C3)cc2c(=O)n1C` (single isomer, unassigned) [Example 151B], under “HEK293, read-out: Emax”, the maximal response (Emax) was less than 75%. Under setting [1], the EC50 is 0.1 to 1 µM.
With `Cc1nc2c(-c3ccc(C(F)(F)F)nc3)nc(N3CCO[C@H](c4cnn(C)c4)C3)cc2c(=O)n1C` (single isomer, unassigned) [Example 127B], the Emax (HEK293, read-out: Emax) was less than 75%. Moreover, the EC50 under setting [1] is greater than 1 µM.
The corresponding values for `C[C@@H]1CN(c2cc3c(=O)n(C)c(C(F)(F)F)nc3c(-c3ccc(F)cc3F)n2)C[C@H](c2cnn(C3CC3)c2)O1` (single isomer, unassigned) [Example 193B] are less than 75% and 0.01 to 0.1 µM.
On to `Cc1cc([C@H]2CN(c3nc(-c4ccc(C(F)(F)F)nc4)c4nc(C)n(C)c(=O)c4n3)CCO2)ccn1` (single isomer, unassigned) [Example 22B], for which the maximum response (Emax) (HEK293, read-out: Emax) fell in the range of 75 to 110%. Further, under setting [1], the EC50 lay within 0.001 to 0.01 µM.

A word on the Emax: it is the size of the effect at its maximum, as opposed to the concentration needed. Broadly, the EC50 is the concentration at which the effect is half-maximal.
